Measurements published in US12213485B2, “Synergistic methods of using benzoxaborole compounds and preservative gases as an antimicrobial for crops” (AGROFRESH INC., priority 2016, dated 2025).

Key:
[1] = system: Aspergillus brasiliensis (ASPEBR); assay: In vitro fungal growth on inoculated agar plates, benzoxaborole and CO2 chamber treatment; type: cell-based
From the text: (§1) The following experiments were used to determine synergy between benzoxaborole Compounds A, B, and/or C and preservative gases, such as carbon dioxide (CO2) and sulfur dioxide (SO2). Specific rates or any other unique conditions are noted within the corresponding results tables. Each experiment comprised an air-tight 36 liter (L) chamber (Fisher Scientific, P/N: 08-642-23C), fitted with a bulkhead septum port (Swagelok, P/N: SS-400-61, Solon, OH) used for treatment delivery, as well as for monitoring (using needle extraction) carbon dioxide (CO2), sulfur dioxide (SO2), oxygen (O2) or other headspace samples. A variable speed fan (Thermaltake, Mobile Fan II, P/N: A1888, Taipei City, Taiwan) set to low was also used to circulate the headspace atmosphere.
(§2) In vitro and in vivo experiments were performed concurrently in triple replicates (i.e., triplicate) unless otherwise noted. For in vitro experiments, a single 6-well microtiter plate or three, 10-cm petri plates each containing half strength Potato Dextrose Agar were prepared. Each well or plate was inoculated with 1 microliter (μL) of 1×10^5 spores/ml of the appropriate pathogenic spore suspension (e.g., Botrytis cinerea, BOTRCI; Penicillium expansum, PENIEX; Mucor piriformis, MUCOPI; Fusarium sambucinum FUSASA; or Aspergillus brasiliensis, ASPEBR). The inoculated microtiter or petri plates were then sealed with a breathable film (AeraSeal; P/N: B-100, Excel Scientific, Victorville, CA).
(§3) For treatment, the inoculated agar plates and clamshells containing fruits (e.g., strawberries and grapes) were placed inside a 36 L experimental chamber unit, which was then sealed prior to commencement of compound treatments. The chamber remained sealed throughout the duration of the experiment except for addition of treatment to the chamber, and post-treatment ventilation.
(§4) Benzoxaborole Compound A or Compound B was dissolved in acetone and dispensed onto a 60 mm Whatman #1 filter paper disk using a pipette. The acetone was permitted to evaporate for five minutes before the disk was placed on a watch glass in each chamber.
(§5) A 12% CO2 headspace treatment was then established in the chamber by permitting 10 grams (g) of crushed dry ice placed in a weigh boat in the chamber to evaporate in the sealed chamber. However, the bulkhead port of the chamber was loosened to permit the release of internal pressure. Optionally, a fan was used during the initial hours of treatment (i.e., up to about 6 hours of treatment) to ensure uniform treatment exposure of fruits and plates.
(§6) Untreated controls and CO2 treated chambers contained an acetone-treated disk with similar evaporation for five minutes. CO2 and O2 levels in the chamber were monitored using a handheld gas detector (Dansensor Checkpoint II; P/N 600111, Ringsted, Denmark). Temperature and relative humidity were also monitored within the chamber using data loggers (Onset HOBO; P/N U12-013, Bourne, MA).
(§7) The chamber for all in vitro and in vivo experiments was held at room temperature (i.e., from about 21° C. to about 23° C.) typically for about 3.5 days (i.e., about 84 hours) of treatment exposure. Chambers were then vented. After an additional 2-3 days with the chamber at room temperature, post-treatment radial growth (in mm) of each in vitro pathogen (see Examples 1-7, Tables 1-7) was measured on the inoculated plates using electronic calipers (Mitutoyo, P/N: CD-6-CX, Aurora, IL). In addition, the point of inoculation on fruits was assessed for indication of in vivo disease incidence (e.g., yes or no) and severity of disease incidence (see Examples 8-16, Tables 8-16). Disease severity was rated on a scale ranging from 0 to 4, where “0” indicated no disease severity, “1” indicated minimal disease severity, “2” indicated medium disease severity, “3” indicated high disease severity, and “4” indicated exceptionally high disease severity. […]

[2] = system: Botrytis cinerea (BOTRCI); assay: as above; type: cell-based
From the text: as §1, §2, §3, §4, §5, §6, §7

[3] = system: Fusarium sambucinum (FUSASA); assay: as above; type: cell-based
From the text: as §1, §2, §3, §4, §5, §6, §7

[4] = system: Mucor piriformis (MUCOPI); assay: as above; type: cell-based; settings: Table 3, 12% CO2 alone, evaluated 2 days after treatment, 6-well microtiter plate, fan first 6 hours, >90% R.H.
From the text: as §1, §2, §3, §4, §5, §6, §7

[5] = system: Penicillium expansum (PENIEX); assay: as above; type: cell-based
From the text: as §1, §2, §3, §4, §5, §6, §7

[6] = system: Botrytis cinerea (BOTRCI) on strawberries; assay: In vivo disease severity on wound-inoculated strawberries, benzoxaborole and CO2 chamber treatment
From the text: as §1
(§8) For in vivo experiments, eight strawberry fruits per repetition were surface sterilized with a 70% ethanol solution. After sterilization, the strawberries were rinsed twice with deionized water. Each strawberry fruit was wounded using a T15 screwdriver tip to a uniform depth of eight mm (8 mm). Each fruit wound was inoculated with 20 μL of 1×10^5 spores/ml pathogen spore suspension of B. cinerea or M. piriformis. The strawberries were then placed with the stem facing downwards inside a 1-pound strawberry clamshell.
as §3, §4, §5, §6, §7

[7] = system: Mucor piriformis (MUCOPI) on strawberries; assay: as above; settings: Table 10, 12% CO2 alone, evaluated 2 days after treatment, fan first 6 hours, >90% R.H.
From the text: as §1, §8, §3, §4, §5, §6, §7

[8] = system: Botrytis cinerea (BOTRCI) on table grapes; assay: In vivo disease severity on wound-inoculated table grapes, benzoxaborole and CO2 chamber treatment; settings: Table 15, 12% CO2 alone, evaluated 1 day after treatment, fan continuous
From the text: as §1
(§9) Similarly, table grape fruits were also tested in vivo. More specifically, 16-20 table grapes per repetition were washed and inoculated with pathogens (as described above for the strawberries). However, an ethanol-sterilized push pin, rather than a T15 screwdriver, was used to wound the stem-end of the grapes. The grapes were inoculated in the wound, and then arranged inside a 1-pint clamshell.
as §3, §4, §5, §6, §7

[9] = system: Penicillium expansum (PENIEX) on table grapes; assay: as above; settings: Table 16, 12% CO2 alone, evaluated 1 day after treatment, fan continuous
From the text: as §1, §9, §3, §4, §5, §6, §7

[10] = Table 5, 12% CO2 alone, evaluated 2 days after treatment, 6-well plate, fan first 6 hours, >90% R.H.
[11] = Table 1, 12% CO2 alone, evaluated 2 days after treatment completion, 6-well microtiter plate, 4 replicates, fan first 6 hours
[12] = Table 4, 12% CO2 alone, evaluated 2 days after treatment completion, 6-well microtiter plate, fan first 6 hours
[13] = Table 5, compound 0.14 mg/L + 12% CO2, Colby equation E=x+y−x*y/100
[14] = Table 5, compound 0.14 mg/L + 12% CO2, evaluated 2 days after treatment, 6-well plate, fan first 6 hours, >90% R.H.
[15] = Table 5, compound alone 0.14 mg/L, evaluated 2 days after treatment, 6-well plate, fan first 6 hours, >90% R.H.

**Q.** What does the source list for `O=C=O` [CO2, carbon dioxide]?
**A.** Growth (diameter, mm) 12% CO2 [1, 10]: 26.2 mm; Growth (diameter, mm) 12% CO2 [2, 11]: 28.0 mm; Growth (diameter, mm) 12% CO2 ([2]; Table 3, 12% CO2 alone, evaluated 2 days after treatment, 6-well microtiter plate, fan first 6 hours, >90% R.H.): 30.9 mm; Growth (diameter, mm) 12% CO2 [2, 12]: 33.4 mm; Growth (diameter, mm) 12% CO2 [2, 10]: 35.0 mm; Growth (diameter, mm) 12% CO2 ([2]; Table 6, 12% CO2 alone, evaluated 3 days after treatment, 10 cm petri plates, fan continuous): 78.9 mm; Growth (diameter, mm) 12% CO2 [3, 10]: 33.9 mm; Growth (diameter, mm) 12% CO2 [4]: 35.0 mm; Growth (diameter, mm) 12% CO2 [5, 11]: 18.6 mm; Growth (diameter, mm) 12% CO2 ([5]; Table 2, 12% CO2 alone, evaluated 2 days after treatment, 6-well microtiter plate, fan first 6 hours, >90% R.H.): 21.3 mm; Growth (diameter, mm) 12% CO2 [5, 12]: 21.2 mm; Growth (diameter, mm) 12% CO2 [5, 10]: 19.9 mm; Growth (diameter, mm) 12% CO2 ([5]; Table 7, 12% CO2 alone, evaluated 3 days after treatment, 10 cm Petri plates, fan continuous): 25.8 mm; Growth (Severity, 0 to 4) 12% CO2 ([6]; Table 8, 12% CO2 alone, evaluated 2 days after treatment, 4 replicates, fan first 6 hours, >90% R.H.): 3.7; Growth (Severity, 0 to 4) 12% CO2 ([6]; Table 9, 12% CO2 alone, evaluated 3 days after treatment, fan first 6 hours, >90% R.H.): 3.5; Growth (Severity, 0 to 4) 12% CO2 ([6]; Table 11, 12% CO2 alone, evaluated 2 days after treatment, fan first 6 hours, >90% R.H.): 2.7; Growth (Severity, 0 to 4) 12% CO2 ([6]; Table 12, 12% CO2 alone, evaluated 2 days after treatment, fan first 6 hours, >90% R.H.): 3.4; Growth (Severity, 0 to 4) 12% CO2 ([6]; Table 13, 12% CO2 alone, evaluated 3 days after treatment, fan run continuously): 3.2; Growth (Severity, 0 to 4) 12% CO2 ([6]; Table 14, 12% CO2 alone, evaluated 3 days after treatment, fan continuous): 3.9; Growth (Severity, 0 to 4) 12% CO2 [7]: 3.0; Growth (Severity, 0 to 4) 12% CO2 [8]: 1.4; Growth (Severity, 0 to 4) 12% CO2 [9]: 1.9

**Q.** How did the “Colby Calculation” value [1, 13] turn out when `Fc1ccc2c(c1)COB2OCCOB1OCc2cc(F)ccc21` [Compound B] was run?
**A.** Its value is 112.0.

**Q.** What about the “Growth (diameter, mm) Cmpd + 12% CO2” value [1, 14] of the same compound?
**A.** Its value is 0.0 mm.

**Q.** What about the “Growth (diameter, mm) Cmpd” value [1, 15] of the same compound?
**A.** Its value is 3.6 mm.

**Q.** And the “Colby Calculation” value [2, 13]?
**A.** The value was 103.4.

**Q.** What about the “Growth (diameter, mm) Cmpd + 12% CO2” value [2, 14] of the same compound?
**A.** Its value is 2.7 mm.

**Q.** What about the “Growth (diameter, mm) Cmpd” value [2, 15] of the same compound?
**A.** The value was 3.5 mm.

**Q.** And the “Colby Calculation” value [3, 13]?
**A.** Its value is 100.4.

**Q.** And the “Growth (diameter, mm) Cmpd + 12% CO2” value [3, 14]?
**A.** The value was 3.4 mm.

**Q.** And the “Growth (diameter, mm) Cmpd” value [3, 15]?
**A.** Its value is 3.6 mm.

**Q.** And the “Colby Calculation” value [5, 13]?
**A.** The value was 102.4.

**Q.** What about the “Growth (diameter, mm) Cmpd + 12% CO2” value [5, 14] of the same compound?
**A.** Its value is 6.4 mm.

**Q.** What about the “Growth (diameter, mm) Cmpd” value [5, 15] of the same compound?
**A.** The value was 7.7 mm.

**Q.** And the “Colby Calculation” value ([6]; Table 11, compound 0.14 mg/L + 12% CO2, Colby equation E=x+y−x*y/100)?
**A.** The value was 105.0.

**Q.** And the “Growth (Severity, 0 to 4) Cmpd + 12% CO2” value ([6]; Table 11, compound 0.14 mg/L + 12% CO2, evaluated 2 days after treatment, fan first 6 hours, >90% R.H.)?
**A.** The value was 0.5.

**Q.** And the “Growth (Severity, 0 to 4) Cmpd” value ([6]; Table 11, compound alone 0.14 mg/L, evaluated 2 days after treatment, fan first 6 hours, >90% R.H.)?
**A.** The value was 0.9.

**Q.** What about the “Colby Calculation” value ([6]; Table 12, compound 0.14 mg/L + 12% CO2, Colby equation E=x+y−x*y/100) of the same compound?
**A.** The value was 100.9.

**Q.** What about the “Growth (Severity, 0 to 4) Cmpd + 12% CO2” value ([6]; Table 12, compound 0.14 mg/L + 12% CO2, evaluated 2 days after treatment, fan first 6 hours, >90% R.H.) of the same compound?
**A.** The value was 0.3.

**Q.** And the “Growth (Severity, 0 to 4) Cmpd” value ([6]; Table 12, compound alone 0.14 mg/L, evaluated 2 days after treatment, fan first 6 hours, >90% R.H.)?
**A.** Its value is 0.4.
